Experimental findings from PubChem BioAssay (NCI) are described below.

Test systems include A549 NSCLC; BT-549 breast; CCRF-CEM leukemia; MDA-MB-231 breast; OVCAR-3 ovarian; SF-268 CNS; SK-MEL-5 melanoma; SNB-19 CNS; SR leukemia; UO-31 renal.
Holding throughout (experiment): NCI tumour cell line growth inhibition, 48 h

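Following 48 hours of exposure in 96-well plates, responses at five concentrations were used to interpolate endpoints linearly. GI50 marks 50% less growth. Definition used: TGI = concentration required for complete inhibition of growth.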

Consider `Nc1c(C(=O)Nc2cccc(Cl)c2)sc2nc3c(cc12)C(O)CCC3` (stereo not drawn), for which the GI50 with A549 NSCLC is 0.465 µM; in the experiment with BT-549 breast, 3.14 µM; in the experiment with CCRF-CEM leukemia, 0.31 µM; in the experiment on MDA-MB-231 breast, 1.92 µM; in the experiment with OVCAR-3 ovarian, 0.311 µM; in the experiment with SF-268 CNS, 0.754 µM. Also, the GI50 was 0.375 µM in the experiment with SK-MEL-5 melanoma, 4.35 µM in the experiment with SNB-19 CNS, 0.258 µM in the experiment on SR leukemia and 1.1 µM in the experiment with UO-31 renal. Besides, the TGI with A549 NSCLC was 17.4 µM; with BT-549 breast, 38.5 µM; in the experiment with CCRF-CEM leukemia it was 17.3 µM; in the experiment with MDA-MB-231 breast, 49.1 µM; in the experiment on OVCAR-3 ovarian, 1.22 µM; with SF-268 CNS, 39.1 µM. Moreover, the TGI in the experiment on SK-MEL-5 melanoma was 18.3 µM; with SNB-19 CNS it was 99.4 µM; in the experiment on SR leukemia, 28.6 µM; with UO-31 renal, 26.8 µM.
Regarding `COc1ccc2nc3cc([N+](=O)[O-])ccc3c(NCCO)c2c1`, the GI50 is 4.44 µM with A549 NSCLC; 2.88 µM in the experiment on BT-549 breast; 2.17 µM with CCRF-CEM leukemia; 4.4 µM with MDA-MB-231 breast; 2.41 µM in the experiment on OVCAR-3 ovarian; 1.15 µM with SF-268 CNS. Further, the GI50 was 1.61 µM in the experiment with SK-MEL-5 melanoma, 2.96 µM in the experiment with SNB-19 CNS, 3.13 µM with SR leukemia and 4.75 µM with UO-31 renal. The TGI was 23.9 µM in the experiment with A549 NSCLC; 7.02 µM in the experiment on BT-549 breast; 13.4 µM with CCRF-CEM leukemia; 28.1 µM in the experiment on MDA-MB-231 breast; 10.2 µM in the experiment with OVCAR-3 ovarian; 11.5 µM in the experiment on SF-268 CNS. Also, the TGI in the experiment with SK-MEL-5 melanoma came out at 3.26 µM; in the experiment on SNB-19 CNS it was 11.5 µM; in the experiment on UO-31 renal, 19 µM.
As to `Cn1c2c(c3ccccc31)CCN1C[C@@H]3CCCC[C@H]3C[C@@H]21`, the GI50 was 3.1 µM in the experiment on A549 NSCLC; 3.04 µM in the experiment on BT-549 breast; 4.77 µM in the experiment with CCRF-CEM leukemia; 2.88 µM in the experiment on MDA-MB-231 breast; 1.95 µM in the experiment on OVCAR-3 ovarian; 3.22 µM in the experiment on SF-268 CNS. Also, the GI50 in the experiment on SK-MEL-5 melanoma was 1.42 µM; in the experiment with SNB-19 CNS, 5.15 µM; in the experiment with SR leukemia, 2.96 µM; in the experiment on UO-31 renal, 2.2 µM. Moreover, the TGI is more than 100 µM in the experiment with A549 NSCLC; 9.19 µM in the experiment on BT-549 breast; more than 100 µM in the experiment with CCRF-CEM leukemia; 8.66 µM in the experiment with MDA-MB-231 breast; 4.74 µM in the experiment with OVCAR-3 ovarian; more than 40.2 µM in the experiment on SF-268 CNS. In addition, the TGI in the experiment with SK-MEL-5 melanoma was 4.07 µM; with SNB-19 CNS it was more than 100 µM; in the experiment with SR leukemia, more than 25.8 µM; with UO-31 renal, 13.7 µM.
In the case of `CCN1CCN(Cc2ccc(Nc3ncc(F)c(-c4cc(F)c5nc(C)n(C(C)C)c5c4)n3)nc2)CC1`, the GI50 is 0.411 µM with A549 NSCLC; 6.54 µM with BT-549 breast; 1.14 µM with CCRF-CEM leukemia; 6.29 µM in the experiment on MDA-MB-231 breast; 6.34 µM in the experiment on OVCAR-3 ovarian; 5.32 µM in the experiment on SF-268 CNS. In addition, the GI50 was 0.392 µM with SK-MEL-5 melanoma, 5.48 µM with SNB-19 CNS, 0.101 µM in the experiment with SR leukemia and 0.139 µM in the experiment on UO-31 renal. Moreover, the TGI with A549 NSCLC turned out to be 11.9 µM; with BT-549 breast, 13.7 µM; with CCRF-CEM leukemia, 15 µM; in the experiment with MDA-MB-231 breast it was 13 µM; with OVCAR-3 ovarian, 13.5 µM; in the experiment on SF-268 CNS, 13.9 µM. Besides, the TGI with SK-MEL-5 melanoma came out at 10.3 µM; in the experiment with SNB-19 CNS, 12.4 µM; with SR leukemia, 6.92 µM; in the experiment with UO-31 renal, 7.26 µM.
Consider `COc1cc(-c2oc3c(OC)c(O)c(OC)c(O)c3c(=O)c2OC)cc(OC)c1OC`, for which the TGI is more than 100 µM with A549 NSCLC; more than 100 µM with BT-549 breast; more than 100 µM in the experiment on CCRF-CEM leukemia; more than 100 µM in the experiment on MDA-MB-231 breast; 95.9 µM with OVCAR-3 ovarian; 71.5 µM in the experiment on SF-268 CNS. In addition, the TGI in the experiment with SK-MEL-5 melanoma, in the experiment on SNB-19 CNS, in the experiment with SR leukemia and in the experiment on UO-31 renal was more than 100 µM each time.
Consider `Nc1nc2ccc(CNc3ccc(C(=O)NC(CC(=O)O)C(=O)O)cc3)cc2c(=O)[nH]1` (stereo not drawn), for which the GI50 with A549 NSCLC is 0.549 µM; in the experiment with BT-549 breast it was 4.02 µM; in the experiment on CCRF-CEM leukemia, 4.86 µM; in the experiment with MDA-MB-231 breast it was more than 100 µM; with OVCAR-3 ovarian it was 16.2 µM; in the experiment on SF-268 CNS, 5 µM. Further, the GI50 in the experiment on SK-MEL-5 melanoma is 5.35 µM; with SNB-19 CNS it was more than 82.5 µM; in the experiment with SR leukemia it was 0.52 µM; in the experiment with UO-31 renal, 9.74 µM. In addition, the TGI with BT-549 breast was more than 31 µM; in the experiment with CCRF-CEM leukemia it was more than 100 µM; in the experiment with MDA-MB-231 breast, more than 100 µM; in the experiment with OVCAR-3 ovarian, more than 100 µM; with SF-268 CNS, more than 100 µM; in the experiment with SK-MEL-5 melanoma, more than 100 µM. Besides, the TGI in the experiment on SNB-19 CNS, in the experiment on SR leukemia and in the experiment on UO-31 renal was more than 100 µM throughout.
Regarding `COc1ccc2c(c1)OCC1c3cc(OC)c4ccccc4c3OC21` (stereo not drawn), the GI50 with A549 NSCLC was 15.8 µM; in the experiment with BT-549 breast, 11.5 µM; in the experiment with CCRF-CEM leukemia it was 16.2 µM; in the experiment on MDA-MB-231 breast, 8.68 µM; with OVCAR-3 ovarian, 1.5 µM; in the experiment on SF-268 CNS, 12.1 µM. The GI50 was 5.11 µM in the experiment with SK-MEL-5 melanoma, 23.9 µM in the experiment with SNB-19 CNS, 3.89 µM with SR leukemia and 22.2 µM with UO-31 renal. In addition, the TGI in the experiment on A549 NSCLC was more than 100 µM; in the experiment with BT-549 breast it was 97.2 µM; in the experiment on CCRF-CEM leukemia it was more than 100 µM; in the experiment with MDA-MB-231 breast it was 82.9 µM; in the experiment on OVCAR-3 ovarian it was 4.08 µM; in the experiment with SF-268 CNS it was more than 100 µM. For the same compound, the TGI with SK-MEL-5 melanoma was 24.2 µM; in the experiment with SNB-19 CNS, more than 100 µM; in the experiment with SR leukemia it was 16.6 µM; with UO-31 renal it was more than 100 µM.
